Assay results published in ChEMBL document CHEMBL2074542, “Differential recognition of beta -lactam antibiotics by intestinal and renal peptide transporters, PEPT 1 and PEPT 2” (J Biol Chem, 1995).
Each block holds one molecule with its values, some of them ahead of it. Peptide text beside a SMILES is read from it.

Assays:
[1] = target: T1, Solute carrier family 15 member 2 (Homo sapiens, UniProt Q16348); assay: TP_TRANSPORTER: inhibition of Cephalexin uptake in SKPT cells; type: functional, cell-based
T1 sequence (Q16348 whole entry): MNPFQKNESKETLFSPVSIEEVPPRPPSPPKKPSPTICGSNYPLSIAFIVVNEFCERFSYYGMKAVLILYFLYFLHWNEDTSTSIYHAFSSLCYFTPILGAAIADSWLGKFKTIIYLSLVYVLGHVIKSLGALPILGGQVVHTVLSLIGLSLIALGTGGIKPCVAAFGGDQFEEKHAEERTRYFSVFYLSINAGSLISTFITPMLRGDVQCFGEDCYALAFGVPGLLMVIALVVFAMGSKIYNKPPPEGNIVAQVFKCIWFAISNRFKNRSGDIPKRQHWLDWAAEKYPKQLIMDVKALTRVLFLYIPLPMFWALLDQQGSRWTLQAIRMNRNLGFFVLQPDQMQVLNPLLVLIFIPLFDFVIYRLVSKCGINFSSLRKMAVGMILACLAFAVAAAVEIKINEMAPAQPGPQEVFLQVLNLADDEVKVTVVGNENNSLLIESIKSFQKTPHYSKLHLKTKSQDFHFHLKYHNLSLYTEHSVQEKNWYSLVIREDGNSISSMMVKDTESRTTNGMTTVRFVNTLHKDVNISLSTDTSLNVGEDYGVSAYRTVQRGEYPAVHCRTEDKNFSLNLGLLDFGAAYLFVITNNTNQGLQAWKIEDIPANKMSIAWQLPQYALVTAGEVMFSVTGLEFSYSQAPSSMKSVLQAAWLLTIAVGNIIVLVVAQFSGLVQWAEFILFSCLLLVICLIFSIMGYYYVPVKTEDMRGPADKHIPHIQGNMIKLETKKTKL

[2] = target: T1, Solute carrier family 15 member 2; assay: TP_TRANSPORTER: inhibition of Gly-Sar uptake (Gly-Sar: 50 uM) in PEPT2-expressing HeLa cells; type: functional, cell-based
[3] = target: T1, Solute carrier family 15 member 2; assay: TP_TRANSPORTER: inhibition of Gly-Sar uptake in SKPT cells; type: functional, cell-based
[4] = target: T2, Solute carrier family 15 member 1 (Homo sapiens, UniProt P46059); assay: TP_TRANSPORTER: inhibition of Gly-Sar uptake (Gly-Sar: 5 uM) in Caco-2 cells; type: functional, cell-based
T2 sequence (P46059 whole entry): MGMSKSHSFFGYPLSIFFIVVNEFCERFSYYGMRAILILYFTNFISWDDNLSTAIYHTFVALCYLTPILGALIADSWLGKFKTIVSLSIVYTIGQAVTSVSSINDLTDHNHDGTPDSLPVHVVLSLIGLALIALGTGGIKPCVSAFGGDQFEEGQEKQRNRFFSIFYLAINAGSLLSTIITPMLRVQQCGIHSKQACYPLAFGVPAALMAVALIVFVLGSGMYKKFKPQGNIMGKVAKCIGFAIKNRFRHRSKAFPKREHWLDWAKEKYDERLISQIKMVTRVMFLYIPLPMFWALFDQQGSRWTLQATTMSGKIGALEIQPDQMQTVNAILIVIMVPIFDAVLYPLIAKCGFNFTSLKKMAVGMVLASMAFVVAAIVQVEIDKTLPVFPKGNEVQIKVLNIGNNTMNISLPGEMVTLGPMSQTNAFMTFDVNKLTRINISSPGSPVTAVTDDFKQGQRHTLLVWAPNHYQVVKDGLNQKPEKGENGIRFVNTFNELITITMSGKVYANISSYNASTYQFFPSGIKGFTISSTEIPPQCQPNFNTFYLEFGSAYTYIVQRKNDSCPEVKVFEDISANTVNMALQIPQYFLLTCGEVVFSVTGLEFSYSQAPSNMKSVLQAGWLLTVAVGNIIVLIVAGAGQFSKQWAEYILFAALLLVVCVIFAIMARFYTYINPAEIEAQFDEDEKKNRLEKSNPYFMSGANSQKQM

[5] = target: T2, Solute carrier family 15 member 1
Description: TP_TRANSPORTER: inhibition of Gly-Sar uptake (Gly-Sar: 25 uM) in PEPT1-expressing HeLa cells

[6] = target: T3, Solute carrier family 15 member 2 (Homo sapiens) (UniProt Q16348); assay: TP_TRANSPORTER: uptake in PEPT2-expressing HeLa cells; type: functional, cell-based
T3 sequence (whole entry): T1 sequence (Q16348 whole entry)

[7] = substrate: CC1=C(C(=O)O)N2C(=O)[C@@H](NC(=O)[C@H](N)c3ccccc3)[C@H]2SC1; assay: TP_TRANSPORTER: uptake in SKPT cells; type: functional, cell-based

Molecule: CC1(C)S[C@@H]2[C@H](NC(=O)C3(N)CCCCC3)C(=O)N2[C@H]1C(=O)O [CYCLACILLIN]
- IC50 [2]: 610 µM
- Ki [3]: 39.1 µM
- IC50 [4]: 600 µM
- IC50 [5]: 350 µM

B1: Solute carrier family 15 member 2 (Rattus norvegicus), Q63424 (protein)
chain: MNPFQKNESKETLFSPVSTEEMLPRPPSPPKKSPPKIFGSSYPVSIAFIVVNEFCERFSYYGMKAVLTLYFLYFLHWNEDTSTSVYHAFSSLCYFTPILGAAIADSWLGKFKTIIYLSLVYVLGHVFKSLGAIPILGGKMLHTILSLVGLSLIALGTGGIKPCVAAFGGDQFEEEHAEARTRYFSVFYLAINAGSLISTFITPMLRGDVKCFGQDCYALAFGVPGLLMVLALVVFAMGSKMYRKPPPEGNIVAQVIKCIWFALCNRFRNRSGDLPKRQHWLDWAAEKYPKHLIADVKALTRVLFLYIPLPMFWALLDQQGSRWTLQANKMNGDLGFFVLQPDQMQVLNPFLVLIFIPLFDLVIYRLISKCRINFSSLRKMAVGMILACLAFAVAALVETKINGMIHPQPASQEIFLQVLNLADGDVKVTVLGSRNNSLLVESVSSFQNTTHYSKLHLEAKSQDLHFHLKYNSLSVHNDHSVEEKNCYQLLIHQDGESISSMLVKDTGIKPANGMAAIRFINTLHKDLNISLDTDAPLSVGKDYGVSAYRTVLRGKYPAVHCETEDKVFSLDLGQLDFGTTYLFVITNITSQGLQAWKAEDIPVNKLSIAWQLPQYVLVTAAEVMFSVTGLEFSYSQAPSSMKSVLQAAWLLTVAVGNIIVLVVAQFSGLAQWAEFVLFSCLLLVVCLIFSVMAYYYVPLKSEDTREATDKQIPAVQGNMINLETKNTRL
- Km [7]: 49 µM

The remaining lines, values ahead:

- Ki [1]: 64 µM
Molecule: CN(CC(=O)O)C(=O)CN [GLYCYLSARCOSINE] (HELM PEPTIDE1{G.[Sar]}$$$$V2.0)

- Ki [3]: 68.2 µM
- Activity [6]: substrate [+]
Molecule: CC1=C(C(=O)O)N2C(=O)[C@@H](NC(=O)[C@H](N)c3ccccc3)[C@H]2SC1 [CEPHALEXIN ANHYDROUS]

- IC50 [2]: 66 µM
- Ki [3]: 2.8 µM
- IC50 [4]: 5400 µM
- IC50 [5]: 870 µM
Molecule: CC1=C(C(=O)O)N2C(=O)[C@@H](NC(=O)[C@H](N)c3ccc(O)cc3)[C@H]2SC1 [CEFADROXIL]
